In a compilation of properties of binary mixtures (doi:10.1039/c5cp02799c):

Experiment: xn = mol fraction of the nth substance listed
Conditions: 101.3 kPa

CCCCC[P+](CC)(CC)CC.O=S(=O)([N-]S(=O)(=O)C(F)(F)F)C(F)(F)F + O=S(=O)([N-]S(=O)(=O)C(F)(F)F)C(F)(F)F.[Li+]
Conditions | electrical conductivity [S/m] | viscosity [mPa·s]
298.2 K, x2 = 0.25 | 0.062 | –
298.2 K, x2 = 0.39 | 0.016 | 1300
298.3 K, x2 = 0.25 | – | 310
300.2 K, x2 = 0.25 | – | 270
300.2 K, x2 = 0.39 | 0.019 | –
300.3 K, x2 = 0.25 | 0.075 | –
306.2 K, x2 = 0.25 | 0.1 | –
306.2 K, x2 = 0.39 | 0.028 | 670
306.3 K, x2 = 0.25 | – | 180
312.2 K, x2 = 0.39 | 0.041 | –
312.3 K, x2 = 0.25 | 0.14 | 130
312.3 K, x2 = 0.39 | – | 440
318.2 K, x2 = 0.39 | 0.058 | 290
318.3 K, x2 = 0.25 | 0.18 | 95
324.3 K, x2 = 0.25 | 0.23 | 71
330.3 K, x2 = 0.25 | 0.29 | –
330.4 K, x2 = 0.25 | – | 54
336.2 K, x2 = 0.39 | 0.15 | 110
341.2 K, x2 = 0.39 | – | 85
348.2 K, x2 = 0.39 | 0.24 | 63
355.2 K, x2 = 0.39 | – | 47
355.3 K, x2 = 0.25 | – | 21
361.3 K, x2 = 0.25 | 0.73 | –
361.4 K, x2 = 0.25 | – | 18
374.2 K, x2 = 0.25 | – | 12
374.2 K, x2 = 0.39 | – | 24

CC[P+](CC)(CC)CCOC.O=S(=O)([N-]S(=O)(=O)C(F)(F)F)C(F)(F)F + O=S(=O)([N-]S(=O)(=O)C(F)(F)F)C(F)(F)F.[Li+]
Conditions | electrical conductivity [S/m] | viscosity [mPa·s]
298.2 K, x2 = 0.39 | 0.51 | 620
300.1 K, x2 = 0.39 | – | 540
300.2 K, x2 = 0.25 | – | 150
300.2 K, x2 = 0.39 | 0.55 | –
300.3 K, x2 = 0.25 | 1.1 | –
306.1 K, x2 = 0.39 | – | 360
306.2 K, x2 = 0.25 | 1.2 | –
306.2 K, x2 = 0.39 | 0.68 | –
306.3 K, x2 = 0.25 | – | 110
312.2 K, x2 = 0.25 | – | 81
312.3 K, x2 = 0.25 | 1.3 | –
312.3 K, x2 = 0.39 | – | 250
318.1 K, x2 = 0.39 | – | 180
318.2 K, x2 = 0.39 | 0.91 | –
318.3 K, x2 = 0.25 | 1.4 | 61
324.2 K, x2 = 0.25 | – | 47
324.2 K, x2 = 0.39 | 1 | 130
324.3 K, x2 = 0.25 | 1.4 | –
330.2 K, x2 = 0.39 | 1.1 | 95
330.3 K, x2 = 0.25 | 1.5 | 37
336.2 K, x2 = 0.39 | 1.2 | 72
336.3 K, x2 = 0.25 | 1.6 | 30
341.1 K, x2 = 0.39 | – | 58
341.3 K, x2 = 0.25 | – | 25
348.2 K, x2 = 0.25 | 1.7 | 20
348.2 K, x2 = 0.39 | 1.3 | 45
355.2 K, x2 = 0.39 | – | 34
361.2 K, x2 = 0.39 | – | 28
361.3 K, x2 = 0.25 | 1.8 | 14
374.2 K, x2 = 0.39 | – | 19
374.3 K, x2 = 0.25 | – | 10
